The target in assay [1] is GST-tagged K-Ras mutant / His-tagged hSOS1 (Homo sapiens, UniProt P01116). In words: HTRF assay, K-Ras mutant / SOS1 interaction. As to conditions: read-out: IC50 against mutant Kras. Format: binding. In a few lines:
(§1)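 Buffer ~5 mM HEPES pH 7.4, ~150 mM NaCl, ~1 mM DTT, 0.05% BSA, 0.0025% Igepal. Cpd in DMSO + Ras/donor mix + SOS1/acceptor mix; ≥10 min; HTRF 665/620 ratio → IC50.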

Another assay has as its target T1, wildtype Kras / hSOS1 (Homo sapiens, UniProt P01116).
T1 construct: made in house; host or cells: E. coli BL21 (DE3)
In words: HTRF assay, wildtype Kras / SOS1 interaction. As to conditions: read-out: IC50 against wildtype Kras. Format: binding. The method in brief:
as §1

[2] abbreviates: compound nos. 102-196, general methodology of example 5.

Where two headings read alike, the source gives them in different places. Where only a bound is given, the exact number is not on record here.

GST-tagged K-Ras mutant / His-tagged hSOS1, sequence (P01116 whole entry G12D, form open): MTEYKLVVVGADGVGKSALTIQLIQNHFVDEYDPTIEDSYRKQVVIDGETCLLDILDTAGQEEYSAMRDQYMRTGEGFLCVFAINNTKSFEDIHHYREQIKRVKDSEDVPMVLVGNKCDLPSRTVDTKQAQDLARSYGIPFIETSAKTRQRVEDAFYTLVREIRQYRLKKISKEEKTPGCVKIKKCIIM
T1 sequence (P01116 1-188 isoform P01116-2): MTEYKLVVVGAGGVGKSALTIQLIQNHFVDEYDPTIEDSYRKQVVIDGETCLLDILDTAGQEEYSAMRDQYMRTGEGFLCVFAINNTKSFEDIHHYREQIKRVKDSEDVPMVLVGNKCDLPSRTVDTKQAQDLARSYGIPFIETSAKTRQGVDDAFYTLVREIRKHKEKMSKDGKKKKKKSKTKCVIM

The term IC50 denotes the concentration that inhibits the measured activity by half. Take `CN1CCC[C@H]1COc1nc(N2CCCC(F)C(F)(F)C2)c2cc(Cl)c(-c3cccc4sc(N)nc34)c(F)c2n1` (stereo partly drawn) [Compound 459, 4-(6-chloro-8-fluoro-2-(((S)-1-methylpyrrolidin-2-yl)-methoxy)-4-(3,3,4-trifluoro-azepan-1-yl)quinazolin-7-yl)benzo[d]thiazol-2-amine]: the IC50 (in assay [1] (compound nos. 401-703); on wildtype Kras / hSOS1 (compound nos. 401-703)) was under 500 nM each time.
In the case of `Nc1nc2c(-c3c(Cl)cc4c(N5CCOCC(O)C5)nc(OCC56CCCN5CCC6)nc4c3F)ccc(F)c2s1` (stereo not drawn) [Compound 159, 4-(7-(2-amino-7-fluoro-benzo[d]thiazol-4-yl)-6-chloro-8-fluoro-2-((tetra-hydro-1H-pyrrolizin-7a(5H)-yl)methoxy)quinazolin-4-yl)-1,4-oxazepan-6-ol], the concentration for half-maximal inhibition (IC50) (in assay [1] (setting [2]); on wildtype Kras / hSOS1 (setting [2])) was under 500 nM throughout.
As to `N#Cc1c(N)sc2c(F)ccc(-c3c(Cl)cc4c(N5C[C@H]6CC[C@@H](C5)N6CC5COC5)nc(OC[C@@]56CCCN5C[C@H](F)C6)nc4c3F)c12` [Compound 643, 2-amino-4-(6-chloro-8-fluoro-2-(((2R,7aS)-2-fluorotetrahydro-1H-pyrrolizin-7a(5H)-yl)-methoxy)-4-((1R,5S)-8-(oxetan-3-yl-methyl)-3,8-diazabicyclo[3.2.1]-octan-3-yl)quinazolin-7-yl)-7-fluorobenzo[b]-thiophene-3-carbonitrile], the half-inhibitory concentration (IC50) in assay [1] (compound nos. 401-703) is under 500 nM; on wildtype Kras / hSOS1 (compound nos. 401-703) it was over 500 nM.
For `Nc1nc2c(-c3c(F)cc4c(N5CC6CCC(C5)N6)nc(OCC56CCCN5CCC6)nc4c3F)ccc(F)c2s1` [Compound 680, 4-(4-(3,8-diazabicyclo-[3.2.1]octan-3-yl)-6,8-difluoro-2-((tetrahydro-1H-pyrrolizin-7a(5H)-yl)methoxy)quinazolin-7-yl)-7-fluorobenzo[d]thiazol-2-amine], in that order: under 500 nM and over 500 nM.
Turning to `N#CCCc1cc2c(N3CC4CCC(C3)N4)nc(OC[C@@]34CCCN3C[C@H](F)C4)nc2c(F)c1-c1ccc(F)c2sc(N)c(C#N)c12` [Compound 464, 4-(4-(3,8-diazabicyclo-[3.2.1]octan-3-yl)-6-(2-cyanoethyl)-8-fluoro-2-(((2R,7aS)-2-fluorotetra-hydro-1H-pyrrolizin-7a(5H)-yl)methoxy)quin-azolin-7-yl)-2-amino-7-fluorobenzo[b]thiophene-3-carbonitrile], the IC50 (in assay [1] (compound nos. 401-703); at wildtype Kras / hSOS1 (compound nos. 401-703)) was under 500 nM in each case.
As to `CS(=O)(=O)N1CCCN(c2nc(OC[C@@]34CCCN3C[C@H](F)C4)nc3c(F)c(-c4ccc(F)c5sc(N)nc45)c(Cl)cc23)CC1` [Compound 644, 4-(6-chloro-8-fluoro-2-(((2R,7aS)-2-fluorotetra-hydro-1H-pyrrolizin-7a(5H)-yl)methoxy)-4-(4-(methylsulfonyl)-1,4-diazepan-1-yl)quinazolin-7-yl)-7-fluorobenzo[d]thia-zol-2-amine], the IC50 was under 500 nM in assay [1] (compound nos. 401-703) and over 500 nM at wildtype Kras / hSOS1 (compound nos. 401-703).
Regarding `Nc1nc2c(-c3c(Cl)cc4c(N5CCNCC(F)C5)nc(OCC56CCCN5CCC6)nc4c3F)ccc(F)c2s1` (stereo not drawn) [Compound 163, 4-(6-chloro-8-fluoro-4-(6-fluoro-1,4-diazepan-1-yl)-2-((tetrahydro-1H-pyrrolizin-7a(5H)-yl)methoxy)quin-azolin-7-yl)-7-fluorobenzo-[d]thiazol-2-amine], the IC50 (in assay [1] (setting [2]); at wildtype Kras / hSOS1 (setting [2])) was under 500 nM in each case.
As to `Nc1nc2c(-c3c(Cl)cc4c(N5CCCS(=O)(=O)CC5)nc(OC[C@@]56CCCN5C[C@H](F)C6)nc4c3F)ccc(F)c2s1` [Compound 477, 4-(7-(2-amino-7-fluoroben-zo-[d]thiazol-4-yl)-6-chloro-8-fluoro-2-(((2R,7aS)-2-fluorotetrahydro-1H-pyrrolizin-7a(5H)-yl)meth-oxy)quinazolin-4-yl)-1,4-thiazepane 1,1-dioxide], the IC50 (in assay [1] (compound nos. 401-703); at wildtype Kras / hSOS1 (compound nos. 401-703)) was under 500 nM each time.
For `Nc1nc2c(-c3c(Cl)cc4c(N5CCCCC56CNC6)nc(OC[C@@]56CCCN5C[C@H](F)C6)nc4c3F)ccc(F)c2s1` [Compound 629, 4-(6-chloro-8-fluoro-2-(((2R,7aS)-2-fluorotetra-hydro-1H-pyrrolizin-7a(5H)-yl)methoxy)-4-(2,5-diaza-spiro[3.5]nonan-5-yl)quin-azolin-7-yl)-7-fluorobenzo-[d]thiazol-2-amine], the half-inhibitory concentration (IC50) (in assay [1] (compound nos. 401-703); at wildtype Kras / hSOS1 (compound nos. 401-703)) was over 500 nM throughout.
`Nc1nc2c(-c3c(Cl)cc4c(N5CCNCC(F)(F)C5)nc(OCC5(CN6CCCC6)CC5)nc4c3F)ccc(F)c2s1` [Compound 452, 4-(6-chloro-4-(6,6-difluoro-1,4-diazepan-1-yl)-8-fluoro-2-((1-(pyrrolidin-1-ylmeth-yl)cyclopropyl)methoxy)-quinazolin-7-yl)-7-fluoro-benzo[d]thiazol-2-amine]: the IC50 (in assay [1] (compound nos. 401-703); at wildtype Kras / hSOS1 (compound nos. 401-703)) was under 500 nM each time.
Take `CN(C)CC1(COc2nc(N3CC4CCC(C3)N4)c3ccc(-c4cc(O)cc5ccccc45)c(F)c3n2)CC1` [Compound 501, 4-(4-(3,8-diazabicyclo-[3.2.1]octan-3-yl)-2-((1-((dimethylamino)methyl)-cyclopropyl)methoxy)-8-fluoroquinazolin-7-yl)naph-thalen-2-ol]: the IC50 in assay [1] (compound nos. 401-703) was under 500 nM; at wildtype Kras / hSOS1 (compound nos. 401-703), over 500 nM.
For the molecule `CN1CCc2c(cccc2Oc2nc(N3CCNCC(F)(F)C3)c3cc(Cl)c(-c4cccc5sc(N)nc45)c(F)c3n2)C1` [Compound 153, 4-(6-chloro-4-(6,6-difluoro-1,4-diazepan-1-yl)-8-fluoro-2-((2-methyl-1,2,3,4-tetra-hydroisoquinolin-5-yl)oxy)-quinazolin-7-yl)benzo[d]-thiazol-2-amine], the IC50 (in assay [1] (setting [2]); at wildtype Kras / hSOS1 (setting [2])) was over 500 nM in each case.
Regarding `Cc1c(N)sc2cccc(-c3ccc4c(N5CC6CCC(C5)N6)nc(OC[C@@]56CCCN5C[C@H](F)C6)nc4c3F)c12` [Compound 437, 4-(4-(3,8-diazabicyclo-[3.2.1]octan-3-yl)-8-fluoro-2-(((2R,7aS)-2-fluorotetra-hydro-1H-pyrrolizin-7a(5H)-yl)methoxy)quinazolin-7-yl)-3-methylbenzo[b]thio-phen-2-amine], the figures for the IC50 (in assay [1] (compound nos. 401-703); on wildtype Kras / hSOS1 (compound nos. 401-703)) were over 500 nM and under 500 nM, respectively.
The like results for `Nc1nc2c(-c3cc4c(=O)n(CCN5CCCC5)nc(N5C[C@H]6CC[C@@H](C5)N6)c4cc3Cl)ccc(F)c2s1` [Compound 404, 7-(2-amino-7-fluorobenzo[d]thiazol-4-yl)-4-((1R,5S)-3,8-diazabicyclo[3.2.1]octan-3-yl)-6-chloro-2-(2-(pyrrolidin-1-yl)ethyl)phthalazin-1(2H)-one] were, in that order, over 500 nM and under 500 nM.
Take `Fc1c(-c2cccc(-c3ccccc3)c2)c(Cl)cc2c(N3CCCCCC3)nc(OCC34CCCN3CCC4)nc12` [Compound 482, 7-([1,1′-biphenyl]-3-yl)-4-(azepan-1-yl)-6-chloro-8-fluoro-2-((tetrahydro-1H-pyrrolizin-7a(5H)-yl)meth-oxy)quinazoline]: the IC50 is over 500 nM in assay [1] (compound nos. 401-703) and under 500 nM on wildtype Kras / hSOS1 (compound nos. 401-703).
As to `Oc1cc(-c2ccc3c(N4CC5CCC(C4)N5)nc(OC[C@]45CCCN4C[C@@H](F)C5)nc3c2OCC(F)(F)F)c2ccccc2c1` [Compound 608, 4-(4-(3,8-diazabicyclo-[3.2.1]octan-3-yl)-2-(((2S,7aR)-2-fluorotetra-hydro-1H-pyrrolizin-7a(5H)-yl)methoxy)-8-(2,2,2-trifluoroethoxy)-quinazolin-7-yl)naph-thalen-2-ol], the half-inhibitory concentration (IC50) (in assay [1] (compound nos. 401-703); on wildtype Kras / hSOS1 (compound nos. 401-703)) was over 500 nM each time.
In the case of `CN1CCC[C@H]1COc1nc(N2CCCC(n3ccnc3)CC2)c2cc(Cl)c(-c3cccc4sc(N)nc34)c(F)c2n1` (stereo partly drawn) [Compound 490, 4-(4-(4-(1H-imidazol-1-yl)-azepan-1-yl)-6-chloro-8-fluoro-2-(((S)-1-methylpyr-rolidin-2-yl)methoxy)quin-azolin-7-yl)benzo[d]thiazol-2-amine], the half-inhibitory concentration (IC50) was over 500 nM in assay [1] (compound nos. 401-703) and under 500 nM at wildtype Kras / hSOS1 (compound nos. 401-703).
The like results for `CN1CCC[C@H]1COc1nc(N2CCCC(C(N)=O)CC2)c2cc(Cl)c(-c3cccc4sc(N)nc34)c(F)c2n1` (stereo partly drawn) [Compound 427, 1-(7-(2-aminobenzo[d]-thiazol-4-yl)-6-chloro-8-fluoro-2-(((S)-1-methylpyr-rolidin-2-yl)methoxy)quin-azolin-4-yl)azepane-4-carboxamide] were, in that order, under 500 nM and under 500 nM.
With `CO[C@@H]1CN(C)C[C@H]1Oc1nc(N2CC3CCC(C2)N3)c2cc(CCC#N)c(-c3ccc(F)c4sc(N)nc34)c(F)c2n1` [Compound 424, 3-(7-(2-amino-7-fluoro-benzo[d]thiazol-4-yl)-4-(3,8-diazabicyclo[3.2.1]octan-3-yl)-8-fluoro-2-(((3R,4R)-4-methoxy-1-methylpyrrolidin-3-yl)oxy)quinazolin-6-yl)-propanenitrile], the IC50 in assay [1] (compound nos. 401-703) is over 500 nM; at wildtype Kras / hSOS1 (compound nos. 401-703), under 500 nM.
The like results for `Fc1c(N2CCc3ccccc32)ccc2c(N3CCCCCC3)nc(OCC34CCCN3CCC4)nc12` [Compound 487, 4-(azepan-1-yl)-8-fluoro-7-(indolin-1-yl)-2-((tetra-hydro-1H-pyrrolizin-7a(5H)-yl)methoxy)quin-azoline] were, in that order, over 500 nM and under 500 nM.
On to `CN1CCC[C@H]1COc1nc(N2CCCC(C(=O)O)CC2)c2cc(Cl)c(-c3cccc4sc(N)nc34)c(F)c2n1` (stereo partly drawn) [Compound 535, 1-(7-(2-aminobenzo[d]thia-zol-4-yl)-6-chloro-8-fluoro-2-(((S)-1-methylpyrrolidin-2-yl)methoxy)quinazolin-4-yl)azepane-4-carboxylic acid], for which the results for the IC50 (in assay [1] (compound nos. 401-703); at wildtype Kras / hSOS1 (compound nos. 401-703)) were under 500 nM and over 500 nM, respectively.

The values are drawn from US20240254129A1, “HETEROCYCLIC COMPOUNDS AND USES THEREOF” (Kumquat Biosciences Inc., priority 2021, published 2024).
